Experiments:
[1] = test system: Capan-1 Human pancreatic cancer cells; experiment: In vivo antitumoral efficacy, Capan-1 subcutaneous xenograft; conditions: Capan-1 xenograft in Balb/c nude mice
Description: To evaluate the in vivo antitumoral efficacy, the invented compounds (I-80˜171) was determined as a result to follows.
Capan-1 Human pancreatic cancer cells were established as subcutaneous xenografts by injection of 8×10^6 cells into the flanks of adult female Balb/c nude mice. Mice with established tumors (160-250 mm^3) were selected for study (n=6/treatment group). The test compounds were formulated in DW and administered orally (po) at a dose of 30˜200 mg/kg. The vehicle alone was administered to control groups. Animals were dosed 5 days per week (Monday through Friday) for 3 consecutive weeks.
Animals were weighed and tumor size was determined twice weekly by caliper measurements, and tumor volumes were calculated (volume=[…] (mm^3), where l and w refer to the larger and smaller dimensions collected at each measurement). The mean tumor volumes of each group were calculated. The change in mean treated tumor volume was divided by the change in mean control tumor volume, multiplied by 100 and subtracted from 100% to give the tumor growth inhibition for each group.

Mouse pharmacokinetics = format: in vivo; parameters: concentration or dose not given beside the values; conditions: Balb/c male mice, blood samples 15 to 1140 min, LC-MS/MS
Description: To evaluate the pharmacokinetics test, the invented compounds (from I-25 to I-1171) were determined as follows. Blood samples are collected at 15, 30, 60, 120, 240, 480, 1140 min. Quantification is by using a LC-MS/MS method specific to the selected compound. Pharmacokinetics parameters are calculated using WinNonLinnon compartmental analysis software.

Solubility test in water = format: physicochemical; conditions: 25° C., atmospheric pressure
Description: To evaluate the solubility, the invented compounds (I-159, I-161 and I-171) was determined as follows. The compounds was dissolve in water (1 mL, 10 mL and 100 mL) at 25° C. under an atmospheric pressure.

[2] = test system: Capan-1 pancreatic cancer cell line; experiment: Cell viability assay (Capan-1); format: cell-based; conditions: Homo sapiens, 240 h; Capan-1 cells, treated 10 days
Description: 3. Cell Viability Assay (Capan-1)
Cell viability assay was performed by using Capan-1 cell line to measure cytotoxicity of compounds in the present invention. Capan-1 pancreatic cancer cell line was seeded into 96-well plates at 37° C. under 5% CO2 atmosphere using IMDM (Sigma) containing 10% FBS (Hyclone). After 24 hr incubation, cells were treated with the invented compounds at various concentrations for 10 days. After 7-day incubation, the medium was changed. 10 days later, A fluorescence reagent was used to determine the IC50 values.

[3] = test system: LNCaP prostate cancer cell line; experiment: Cell viability assay (LNCaP); format: cell-based; conditions: Homo sapiens, 264 h; LNCaP cells, treated 11 days
Description: 4. Cell Viability Assay (LNCaP)
Cell viability assay was performed by using LNCaP cell line to measure cytotoxicity of compounds in the present invention. LNCaP prostate cancer cell line was seeded into 96-well plates at 37° C. under 5% CO2 atmosphere using RPMI-1640 (Hyclone) containing 10% FBS (Hyclone). After 24 hr incubation, cells were treated with the invented compounds at various concentrations for 11 days. The medium was changed every 3 to 4 day. 11 days later, A fluorescence reagent was used to determine the IC50 values.

Tankyrase-1 = target: T1, Tankyrase-1 (Homo sapiens, UniProt O95271); experiment: Tankyrase-1 enzyme assay; format: biochemical; conditions: 1 hr at room temperature, chemiluminescent readout
T1 sequence (O95271 1-1327): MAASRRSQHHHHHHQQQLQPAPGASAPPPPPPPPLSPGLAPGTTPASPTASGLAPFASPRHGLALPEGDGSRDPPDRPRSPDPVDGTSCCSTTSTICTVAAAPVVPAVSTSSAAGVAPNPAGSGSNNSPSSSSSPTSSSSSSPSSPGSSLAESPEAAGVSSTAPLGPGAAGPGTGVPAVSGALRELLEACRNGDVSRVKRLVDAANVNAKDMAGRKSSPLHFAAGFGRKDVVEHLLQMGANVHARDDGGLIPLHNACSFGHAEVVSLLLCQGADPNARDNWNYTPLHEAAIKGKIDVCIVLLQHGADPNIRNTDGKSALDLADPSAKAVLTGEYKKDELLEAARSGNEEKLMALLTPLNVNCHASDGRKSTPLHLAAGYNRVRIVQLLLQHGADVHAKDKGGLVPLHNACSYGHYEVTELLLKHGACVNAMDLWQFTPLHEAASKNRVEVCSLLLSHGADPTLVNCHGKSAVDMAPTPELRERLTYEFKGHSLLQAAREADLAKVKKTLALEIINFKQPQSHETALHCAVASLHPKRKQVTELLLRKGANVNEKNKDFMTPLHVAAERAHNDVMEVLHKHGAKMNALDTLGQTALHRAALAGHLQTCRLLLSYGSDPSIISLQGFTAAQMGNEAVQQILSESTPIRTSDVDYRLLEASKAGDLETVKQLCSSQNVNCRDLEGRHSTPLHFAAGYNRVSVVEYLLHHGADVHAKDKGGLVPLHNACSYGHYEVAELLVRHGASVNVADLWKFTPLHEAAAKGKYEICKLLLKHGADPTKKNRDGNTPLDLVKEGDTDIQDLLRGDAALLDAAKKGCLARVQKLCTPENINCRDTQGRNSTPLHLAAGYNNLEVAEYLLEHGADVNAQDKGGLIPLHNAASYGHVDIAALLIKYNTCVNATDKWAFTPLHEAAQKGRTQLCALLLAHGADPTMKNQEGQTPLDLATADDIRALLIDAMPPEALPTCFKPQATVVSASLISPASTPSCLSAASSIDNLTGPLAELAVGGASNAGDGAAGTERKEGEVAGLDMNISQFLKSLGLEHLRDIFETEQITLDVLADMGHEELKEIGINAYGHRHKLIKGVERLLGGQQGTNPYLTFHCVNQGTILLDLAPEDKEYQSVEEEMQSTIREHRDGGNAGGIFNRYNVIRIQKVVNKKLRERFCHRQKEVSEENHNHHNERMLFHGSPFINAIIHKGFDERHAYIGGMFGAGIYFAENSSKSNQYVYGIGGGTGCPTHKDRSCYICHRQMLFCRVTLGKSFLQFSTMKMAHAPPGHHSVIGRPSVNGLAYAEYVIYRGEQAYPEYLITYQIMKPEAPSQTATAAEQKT
Description: 5. Tankyrase-1 Enzyme Assay
Tankyrase-1 enzyme assay was performed to determine Tankyrase-1 inhibitory activity of compounds in the present invention. The enzymatic reaction was conducted by coating the plate with substrates of tankyrase-1, and then the plate was washed. Compounds in the present invention serially diluted in DMSO were added to the reaction buffer activating tankyrase-1, and incubated for 1 hr at room temperature. After stopping the reaction, the plate was washed, and streptavidin-HRP was added to each well. IC50 was calculated by adding chemiluminescent substrate and immediately reading the sample in a microplate reader (Biotek).

[4] = test system: MDA-MB-436 breast cancer cell line; experiment: Cell viability assay (MDA-MB-436); format: cell-based; conditions: Homo sapiens, 144 h; MDA-MB-436 cells, treated 6 days
How it was run: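 MDA-MB-436 breast cancer cells in DMEM/F12 with 10% FBS, treated 24 h after seeding with graded compound concentrations for 6 days at 37 °C, 5% CO2, medium changed every 3 days. Viability read with a fluorescence reagent; IC50 derived.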

Row | AUC (Mouse pharmacokinetics) [µg·h/mL] | Solubility class in words (Solubility test in water) | IC50 [2] [µM] | IC50 [3] [µM] | IC50 (Tankyrase-1) [µM] | IC50 [4] [µM] | SMILES | % TGI ([1]; 30 mg/kg po qd x 5, 3 consecutive weeks) [%] | % TGI ([1]; 60 mg/kg po qd x 5, 3 consecutive weeks) [%] | % TGI ([1]; 100 mg/kg po qd x 5, 3 consecutive weeks) [%] | % TGI ([1]; 200 mg/kg po qd x 5, 3 consecutive weeks) [%]
1 | 0.673 | Sparingly soluble | – | – | – | – | Cl.O=C(c1cc(Cc2n[nH]c(=O)c3ccccc23)ccc1F)N1CC(CNC2CC2)C1 [Compound I-171, 4-(3-(3-((cyclopropylamino)methyl)azetidine-1-carbonyl)-4-fluorobenzyl)phthalazin-1(2H)-one hydrochloride] | 42.1 | 69.7 | – | –
2 | 1.02 | Sparingly soluble | – | – | – | – | CC(C)CNC1CN(C(=O)c2cc(Cc3n[nH]c(=O)c4ccccc34)ccc2F)C1.Cl [Compound I-161, 4-(4-fluoro-3-(3-(isobutylamino)azetidine-1-carbonyl)benzyl)phthalazin-1(2H)-one hydrochloride] | – | – | – | –
3 | 0.472 | Sparingly soluble | – | – | – | – | CC(C)NC1CN(C(=O)c2cc(Cc3n[nH]c(=O)c4ccccc34)ccc2F)C1.Cl [Compound I-159, 4-(4-fluoro-3-(3-(isopropylamino)azetidine-1-carbonyl)benzyl)phthalazin-1(2H)-one hydrochloride] | – | – | 59.4 | 69.4
4 | 0.586 | – | 0.3 to 1 | 0.3 to 1 | 0.3 to 1 | 0.005 to 0.05 | N#CC1(NC2CN(C(=O)c3cc(Cc4n[nH]c(=O)c5ccccc45)ccc3F)C2)CCC1 [Compound I-99, 1-((1-(2-fluoro-5-((4-oxo-3,4-dihydrophthalazin-1-yl)methyl)benzoyl)azetidin-3-yl)amino)cyclobutanecarbonitrile] | – | – | – | –

Source: patent US9844550B2, “Phtalazinone derivatives and manufacturing process thereof” (ILDONG PHARM CO., LTD., priority 2013, dated 2017)
